For data set [1] the following is noted: for release from pure thermo-responsive hydrogels: previous tests. The procedure:
Drug release was carried out in PBS at 37° C. […] Drug release samples were taken at predetermined time intervals and tested for anti-proliferative activity with fibroblast MTS assay as described previously. Briefly, 3T3 fibroblast cells were seeded in 96-well plates as 5000 cells/well. After cells were grown to semiconfluence, growth was arrested by washing plates with PBS and then adding low serum medium with DMEM, 0.5% (v/v) FBS and 1% (v/v) penicillin/streptomycin mixture. Growth arrest was maintained for 24 hours. The cell cycle synchronized cells were then re-stimulated to enter G1 phase by changing back to growth medium. […] PBS was added to growth medium as control group.
To quantify the size distribution of nanospheres, the suspension was sampled and serially filtered through 0.45 μm, 0.22 μm, and 0.1 μm filters. The drug concentration after each filtration was quantified and calculated within each nanosphere size distribution. Nanospheres with size >100 nm in diameter were harvested by ultrafiltration and centrifugation. The harvested nanospheres were washed twice with DI water to remove excess PVA. The resultant nanosphere suspension was immersed in fresh PBS at 37° C. to initiate release. […] The release samples were taken continuously for 1 day. All samples were quantified for 3H concentration using a scintillation counter. Each experiment was conducted in triplicate.
The samples were taken continuously for the first 24 hours. The drug concentration was measured spectrophotometrically at 240 nm.

The conditions of data set [2]: oil: methylene chloride + methanol.

“And” between values parts separate entries of the source, which are not always exact repeats. Identical values can stand only once. Counter-ions that a name gives are not always drawn. Like-named read-outs stand apart in the source and are kept apart here.

For `C[C@@H]1C[C@H]2[C@@H]3CCC4=CC(=O)C=C[C@]4(C)[C@@]3(F)[C@@H](O)C[C@]2(C)[C@@]1(O)C(=O)COP(=O)(O)O` [Dexamethasone sodium phosphate, Dexamethasone 21-phosphate disodium salt], the “release from free nanospheres” value in data set [1] (PBS, 37° C.) was “sustained release over 24 hours”. Moreover, the “release from nanospheres loaded hydrogels” value in data set [1] (PBS, 37° C.) is recorded as “sustained release over 24 hours”. The “release from pure thermo-responsive hydrogels” value is “less than 10%” in data set [1] (after the first two hours) and about 90% in data set [1] (within the first two hours). For the same compound, the “drug release from PLGA nanospheres” value in data set [1] (within 24 hours, 37° C., PBS, disodium salt) is > 90% and ~90%. The “P (oil/water)” value is given as 0.06 in data set [2] (water: 0.2% PVA), 0.15 in data set [2] (water: 2% PVA), 0.86 in data set [2] (water: 2% PVA + 0.25N (NH4)2SO4) and 0.26 in data set [2] (water: 2% PVA + 0.5N NaCl).
With `[3H]C1=C([3H])[C@@]2(C)C(=C([3H])C1=O)CC[C@H]1[C@@H]3C[C@@H](C)[C@](O)(C(=O)CO)[C@@]3(C)C[C@H](O)[C@@]12F` [[1,2,4-^3H]dexamethasone, [1,2,4-^3H]dexamethasone], in data set [2] (water: 0.2% PVA), the “P (oil/water)” value is reported as 2.93.

These data come from patent US20140065226A1, “THERMO-RESPONSIVE HYDROGEL COMPOSITIONS” (priority 2011, published 2014).
